According to ChEMBL document CHEMBL1201862, “PubChem BioAssay data set” (2004):
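Exposure lasted 48 hours, with cells grown in 96-well plates and compounds tested at five concentrations. GI50 marks 50% less growth.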 Active and inactive are the calls of the source. Rule as the data show it: active = GI50 up to about 1.1 µM and inactive = higher.

Experiments:
Assay in all cases: NCI anticancer screen, dose series, 48 h
SF-295 = tested on: SF-295
SF-539 = tested on: SF-539
UACC-62 = tested on: UACC-62
IGROV-1 = tested on: IGROV-1
Hs-578T = tested on: Hs-578T
CCRF-CEM = tested on: CCRF-CEM
U-251 = tested on: U-251
NCI-H522 = tested on: NCI-H522
ACHN = tested on: ACHN
MDA-N = tested on: MDA-N
UACC-257 = tested on: UACC-257
HL-60 = tested on: HL-60
SW-620 = tested on: SW-620
HCT-116 = tested on: HCT-116
K562 = tested on: K562
NCI-H460 = tested on: NCI-H460
TK-10 = tested on: TK-10
DLD-1 = tested on: DLD-1
SNB-78 = tested on: SNB-78

Row | Structure (SMILES) | GI50 (SF-295) | GI50 (SF-539) | GI50 (UACC-62) | GI50 (IGROV-1) | GI50 (Hs-578T) | GI50 (CCRF-CEM) | GI50 (U-251) | GI50 (NCI-H522) | GI50 (ACHN) | GI50 (MDA-N) | GI50 (UACC-257) | GI50 (HL-60) | GI50 (SW-620) | GI50 (HCT-116) | GI50 (K562) | GI50 (NCI-H460) | GI50 (TK-10) | GI50 (DLD-1) | GI50 (SNB-78)
1 | COc1cccc(-c2cc(O)c3cccnc3n2)c1 | 0.075 µM (active) | 0.102 µM (active) | 0.0662 µM (active) | 0.432 µM (active) | 0.092 µM (active) | 0.0603 µM (active) | 0.0984 µM (active) | 0.0698 µM (active) | 0.179 µM (active) | 0.0159 µM (active) | > 100 µM (inactive) | 0.0261 µM (active) | 0.0809 µM (active) | 0.0546 µM (active) | 0.0339 µM (active) | 0.1 µM (active) | > 100 µM (inactive) | – | –
2 | CN(C)CC(CC1=C(CC(CN(C)C)N(C)C)CCC1)N(C)C (configuration not stated) | > 100 µM (inactive) | > 100 µM (inactive) | > 100 µM (inactive) | > 100 µM (inactive) | – | > 100 µM (inactive) | > 100 µM (inactive) | > 100 µM (inactive) | – | – | > 100 µM (inactive) | > 100 µM (inactive) | > 100 µM (inactive) | > 100 µM (inactive) | > 100 µM (inactive) | > 100 µM (inactive) | – | > 100 µM (inactive) | –
3 | CCOC(=O)C(C)(C)C(O)C(C)C (configuration not stated) | > 100 µM (inactive) | > 100 µM (inactive) | > 100 µM (inactive) | > 100 µM (inactive) | > 100 µM (inactive) | > 100 µM (inactive) | > 100 µM (inactive) | > 100 µM (inactive) | > 100 µM (inactive) | > 100 µM (inactive) | > 100 µM (inactive) | > 100 µM (inactive) | > 100 µM (inactive) | > 100 µM (inactive) | > 100 µM (inactive) | > 100 µM (inactive) | > 100 µM (inactive) | – | –
4 | CN(CCCNC(=O)c1nn(-c2ccccc2)c2c1ccc1ccccc12)CCCNC(=O)c1nn(-c2ccccc2)c2c1ccc1ccccc12 | 1.87 µM (inactive) | 1.96 µM (inactive) | 1.6 µM (inactive) | 1.65 µM (inactive) | 2.58 µM (inactive) | 0.178 µM (active) | 1.6 µM (inactive) | 1.79 µM (inactive) | 1.74 µM (inactive) | 1.68 µM (inactive) | 1.98 µM (inactive) | 0.221 µM (active) | 1.95 µM (inactive) | 1.82 µM (inactive) | 1.29 µM (inactive) | 1.76 µM (inactive) | 1.78 µM (inactive) | – | –
5 | CCCCCCCC/C=C\CCCCCCCC(=O)O [OLEIC ACID] | 99.1 µM (inactive) | 103 µM (inactive) | 180 µM (inactive) | 178 µM (inactive) | – | 99.8 µM (inactive) | 149 µM (inactive) | 101 µM (inactive) | – | – | 105 µM (inactive) | 126 µM (inactive) | 140 µM (inactive) | 114 µM (inactive) | 104 µM (inactive) | 101 µM (inactive) | – | 148 µM (inactive) | 68.7 µM (inactive)
6 | CCOC(=O)c1cc(NC(=O)c2ccccc2)c(=O)n2c(cc3c(Cl)cccc32)c1O | 57.4 µM (inactive) | > 100 µM (inactive) | > 100 µM (inactive) | > 100 µM (inactive) | > 100 µM (inactive) | 95.5 µM (inactive) | > 100 µM (inactive) | > 100 µM (inactive) | > 100 µM (inactive) | > 100 µM (inactive) | > 100 µM (inactive) | > 100 µM (inactive) | > 100 µM (inactive) | > 100 µM (inactive) | > 100 µM (inactive) | > 100 µM (inactive) | > 100 µM (inactive) | – | –
